Reference: patent US9061041B2, “2′-substituted nucleoside derivatives and methods of use thereof for the treatment of viral diseases” (Merck Sharp & Dohme Corp., priority 2011, dated 2015)
Like-named read-outs stand apart in the source and are kept apart here.

What was measured:
[1] = system: HCV replicon (1b) cells; assay: Cell-based HCV replicon assay
Protocol: To measure cell-based anti-HCV activity of selected compounds of the present invention, replicon cells were seeded at 5000 cells/well in 96-well collagen I-coated Nunc plates in the presence of the test compound. […]. Cells were harvested on day 3 by the addition of 1× cell lysis buffer (Ambion cat #8721). The replicon RNA level was measured using real time PCR (Taqman assay). The amplicon was located in 5B. The PCR primers were: 5B.2F, […] (SEQ ID. NO. 1); 5B.2R, […] (SEQ ID. NO. 2); the probe sequence was FAM-labeled […] (SEQ ID. NO. 3). GAPDH RNA was used as endogenous control and was amplified in the same reaction as NS5B (multiplex PCR) using primers and VIC-labeled probe recommended by the manufacturer (PE Applied Biosystem). The real-time RT-PCR reactions were run on ABI PRISM 7900HT Sequence Detection System using the following program: 48° C. for 30 minutes, 95° C. for 10 minutes, 40 cycles of 95° C. for 15 sec, 60° C. for 1 minute. The ΔCT values (CT5B-CTGAPDH) were plotted against the concentration of test compound and fitted to the sigmoid dose-response model using XLfit4 (MDL). […]; Alternatively, to quantitate the absolute amount of replicon RNA, a standard curve was established by including serially diluted T7 transcripts of replicon RNA in the Taqman assay. All Taqman reagents were from PE Applied Biosystems. Such an assay procedure was described in detail in e.g. Malcolm et al., Antimicrobial Agents and Chemotherapy 50: 1013-1020 (2006).

[2] = system: replicon cells (1b-Con1); assay: Cytotoxicity MTS assay in replicon cells; settings: CC50, MTS assay, three days post dosing
[3] = system: replicon cells (1b-Con1); assay: Replicon activity assay (1b-Con1); assay type: cell-based, HCV; settings: Hepatitis C virus, 72 h, three days post-dosing
[4] = replicon RNA level by real time PCR, cells harvested on day 3
[5] = Hepatitis C virus, 72 h, replicon RNA level by real time PCR, cells harvested on day 3

C[C@@]1(N)[C@H](O)[C@@H](CO)O[C@H]1n1ccc(N)nc1=O [Compound 1]
EC50 [1, 4]: 100 µM

C[C@H](NP(=O)(OC[C@H]1O[C@@H](n2ccc(=O)[nH]c2=O)[C@](C)(N)C1O)Oc1ccccc1)C(=O)OCC(C)(C)C (single isomer, unassigned) [Compound 57]
EC50 [1, 4]: 9.9 µM

CCOc1nc(N)nc2c1ncn2[C@@H]1O[C@H](COP(=O)(N[C@@H](C)C(=O)OCC(C)(C)C)Oc2ccccc2)C(O)[C@@]1(C)N (single isomer, unassigned) [Compound 54]
EC50 [1, 4]: 1.5 µM

CCOC(=O)[C@H](C)NP(=O)(OC[C@H]1O[C@@H](n2cnc3c(OC)nc(N)nc32)[C@](C)(N)[C@@H]1O)Oc1ccccc1 (stereo partly drawn) [drawing 248]
Cytotoxicity [2]: >100 µM | EC50 [3]: 100 nM

CCOc1nc(N)nc2c1ncn2[C@@H]1O[C@H](CO)[C@@H](O)[C@@]1(C)N [Compound 10]
EC50 [1]: 29 µM

C[C@H](NP(=O)(OC[C@H]1O[C@@H](n2ccc(=O)[nH]c2=O)[C@](C)(N)C1O)Oc1ccccc1)C(=O)OCC(C)(C)C (single isomer, unassigned) [Compound 56]
EC50 [1, 4]: 0.7 µM

COc1nc(N)nc2c1ncn2[C@@H]1O[C@H](CO)[C@@H](O)[C@@]1(C)N [Compound 15]
EC50 [1, 5]: > 100 µM

COc1nc(N)nc2c1ncn2[C@@H]1O[C@H](COP(=O)(N[C@@H](C)C(=O)OC(C)C)Oc2ccccc2)C(O)[C@@]1(C)N (single isomer, unassigned) [Compound 23]
EC50 [1, 4]: > 100 µM

C[C@H](NP(=O)(OC[C@H]1O[C@@H](n2ccc(N)nc2=O)[C@](C)(N)C1O)Oc1ccccc1)C(=O)OCC(C)(C)C (single isomer, unassigned) [Compound 58]
EC50 [1, 4]: 4.4 µM

COc1nc(N)nc2c1ncn2[C@@H]1O[C@H](COP(=O)(N[C@@H](C)C(=O)OCC(C)(C)C)Oc2ccccc2)C(O)[C@@]1(C)N (stereo partly drawn)
Cytotoxicity [2]: >100 µM | EC50 [3]: 900 nM

CCOC(=O)[C@H](C)NP(=O)(OC[C@H]1O[C@@H](n2cnc3c(OC)nc(N)nc32)[C@](C)(N)C1O)Oc1ccccc1 (single isomer, unassigned) [Compound 28]
EC50 [1, 5]: 0.1 µM

C[C@@]1(N)[C@H](O)[C@@H](CO)O[C@H]1n1cnc2c(N3CCC3)nc(N)nc21 [Compound 17]
EC50 [1, 5]: > 100 µM

CCOc1nc(N)nc2c1ncn2[C@@H]1O[C@H](COP(=O)(N[C@@H](C)C(=O)OC)Oc2ccccc2)C(O)[C@@]1(C)N (single isomer, unassigned) [Compound 21]
EC50 [1, 5]: 2.6 µM

C[C@@]1(N)[C@H](O)[C@@H](CO)O[C@H]1n1ccc(=O)[nH]c1=O [Compound 16]
EC50 [1, 5]: > 100 µM

CC(C)COC(=O)[C@H](C)NP(=O)(OC[C@H]1O[C@@H](n2ccc(=O)[nH]c2=O)[C@](C)(N)[C@@H]1O)Oc1ccccc1 (single isomer, unassigned) [Compound 67]
EC50 [1, 5]: 6.8 µM

CCOc1nc(N)nc2c1ncn2[C@@H]1O[C@H](COP(=O)(N[C@@H](C)C(=O)OCC(C)(C)C)Oc2ccccc2)C(O)[C@@]1(C)N (single isomer, unassigned) [Compound 55]
EC50 [1, 4]: 3.1 µM

COC(=O)[C@H](C)NP(=O)(OC[C@H]1O[C@@H](n2ccc(N)nc2=O)[C@](C)(n2ccnn2)[C@@H]1O)Oc1ccccc1 (stereo partly drawn) [Compound 5]
EC50 [1, 4]: 90 µM

CC(C)OC(=O)[C@H](C)NP(=O)(OC[C@H]1O[C@@H](n2ccc(=O)[nH]c2=O)[C@](C)(N)[C@@H]1O)Oc1ccccc1 (stereo partly drawn) [drawing 239]
Cytotoxicity [2]: >100 µM | EC50 [3]: 3100 nM

COc1nc(N)nc2c1ncn2[C@@H]1O[C@@H]2COP(=O)(OC(C)C)O[C@H]2[C@@]1(C)N (stereo partly drawn) [drawing 240]
Cytotoxicity [2]: >100 µM | EC50 [3]: 43700 nM

C[C@@]1(Cl)[C@H](O)[C@@H](CO)O[C@H]1n1ccc(N)nc1=O [Compound 6]
EC50 [1]: 10 µM

C#C[C@]1(C)[C@H](O)[C@@H](COP(=O)(N[C@@H](C)C(=O)OC(C)C)Oc2ccccc2)O[C@H]1n1ccc(=O)[nH]c1=O (stereo partly drawn)
Cytotoxicity [2]: >100 µM | EC50 [3]: 2300 nM

CCCCOC(=O)[C@H](C)NP(=O)(OC[C@H]1O[C@@H](n2cnc3c(OCC)nc(N)nc32)[C@](C)(SC)[C@@H]1O)Oc1cccc2ccccc12 (stereo partly drawn) [Compound 44]
EC50 [1, 5]: 24 µM

CCOc1nc(N)nc2c1ncn2[C@@H]1O[C@H](COP(=O)(N[C@@H](C)C(=O)OC)Oc2ccccc2)[C@@H](O)[C@@]1(C)SC (stereo partly drawn) [Compound 43]
EC50 [1, 5]: 38 µM

COC(=O)[C@H](C)NP(=O)(OC[C@H]1O[C@@H](n2ccc(N)nc2=O)[C@](C)(SC)[C@@H]1O)Oc1ccccc1 (stereo partly drawn) [Compound 7]
EC50 [1, 4]: 29 µM

C[C@@]1(C(N)=O)[C@H](O)[C@@H](CO)O[C@H]1n1ccc(N)nc1=O [Compound 85]
EC50 [1, 4]: 45 µM

COC(=O)[C@H](C)NP(=O)(OC[C@H]1O[C@@H](n2ccc(N)nc2=O)[C@](C)(Cl)[C@@H]1O)Oc1ccccc1 (stereo partly drawn) [Compound 8]
EC50 [1, 5]: 34 µM

CC(C)COC(=O)[C@H](C)NP(=O)(OC[C@H]1O[C@@H](n2ccc(N)nc2=O)[C@](C)(N)[C@@H]1O)Oc1ccccc1 (single isomer, unassigned) [Compound 64]
EC50 [1, 5]: 6.6 µM

CC(C)COC(=O)[C@H](C)NP(=O)(OC[C@H]1O[C@@H](n2ccc(N)nc2=O)[C@](C)(N)[C@@H]1O)Oc1ccccc1 (stereo partly drawn)
Cytotoxicity [2]: 50 µM | EC50 [3]: 6600 nM

CCOc1nc(N)nc2c1ncn2[C@@H]1O[C@H](COP(=O)(N[C@@H](C)C(=O)OC)Oc2ccccc2)[C@@H](O)[C@@]1(C)SC (stereo partly drawn) [drawing 242]
Cytotoxicity [2]: >100 µM | EC50 [3]: 38000 nM

CCOc1nc(N)nc2c1ncn2[C@@H]1O[C@H](COP(=O)(N[C@@H](C)C(=O)OC)Oc2ccccc2)C(O)[C@@]1(C)N (stereo partly drawn) [Compound 20]
EC50 [1, 4]: 2.5 µM

CC(=O)N[C@]1(C)[C@H](O)[C@@H](CO)O[C@H]1n1ccc(N)nc1=O [Compound 9]
EC50 [1]: 100 µM

COc1nc(N)nc2c1ncn2[C@@H]1O[C@@H]2COP(=O)(OC(C)C)O[C@H]2[C@@]1(C)N (stereo partly drawn) [Compound 98]
EC50 [1, 4]: 43 µM

CC(C)OC(=O)[C@H](C)NP(=O)(OC[C@H]1O[C@@H](n2ccc(N)nc2=O)[C@](C)(N)C1O)Oc1ccccc1 (stereo partly drawn)
Cytotoxicity [2]: >100 µM | EC50 [3]: 5500 nM

CCOC(=O)[C@H](C)NP(=O)(OC[C@H]1O[C@@H](n2cnc3c(OC)nc(N)nc32)[C@](C)(N)C1O)Oc1ccccc1 (single isomer, unassigned) [Compound 29]
EC50 [1, 4]: 0.1 µM

C[C@H](NP(=O)(OC[C@H]1O[C@@H](n2ccc(=O)[nH]c2=O)[C@](C)(N)C1O)Oc1ccccc1)C(=O)OCC(C)(C)C (stereo partly drawn)
Cytotoxicity [2]: >100 µM | EC50 [3]: 700 nM

C[C@H](NP(=O)(OC[C@H]1O[C@@H](n2ccc(N)nc2=O)[C@](C)(N)C1O)Oc1ccccc1)C(=O)OCC(C)(C)C (single isomer, unassigned) [Compound 59]
EC50 [1, 4]: 11 µM

C[C@@]1(S(C)(=O)=O)[C@H](O)[C@@H](CO)O[C@H]1n1ccc(N)nc1=O [Compound 3]
EC50 [1]: > 100 µM

CC(C)OC(=O)[C@H](C)NP(=O)(OC[C@H]1O[C@@H](n2ccc(=O)[nH]c2=O)[C@](C)(N)[C@@H]1O)Oc1ccccc1 (stereo partly drawn) [Compound 24]
EC50 [1, 4]: 5 µM

COc1nc(N)nc2c1ncn2[C@@H]1O[C@H](COP(=O)(N[C@@H](C)C(=O)OCC(C)(C)C)Oc2ccccc2)C(O)[C@@]1(C)N (single isomer, unassigned) [Compound 53]
EC50 [1, 4]: 2.7 µM

C[C@H](NP(=O)(OC[C@H]1O[C@@H](n2ccc(N)nc2=O)[C@](C)(N)C1O)Oc1ccccc1)C(=O)OCC(C)(C)C (stereo partly drawn)
Cytotoxicity [2]: >100 µM | EC50 [3]: 4400 nM

CC(C)OP1(=O)OC[C@H]2O[C@@H](n3ccc(N)nc3=O)[C@](C)(N)[C@@H]2O1 (stereo partly drawn) [Compound 78]
EC50 [1, 5]: 30 µM

COc1nc(N)nc2c1ncn2[C@@H]1O[C@H](COP(=O)(N[C@@H](C)C(=O)OCC(C)(C)C)Oc2ccccc2)C(O)[C@@]1(C)N (single isomer, unassigned) [Compound 52]
EC50 [1, 4]: 0.9 µM

C[C@@]1(N)[C@@H]2OP(=O)(OC3CCC3)OC[C@H]2O[C@H]1n1ccc(N)nc1=O (stereo partly drawn) [drawing 247]
Cytotoxicity [2]: >50 µM | EC50 [3]: 2800 nM

COc1nc(N)nc2c1ncn2[C@@H]1O[C@H](COP(=O)(N[C@@H](C)C(=O)OC(C)C)Oc2ccccc2)C(O)[C@@]1(C)N (single isomer, unassigned) [Compound 22]
EC50 [1, 4]: 2.6 µM

C[C@@]1(n2ccnn2)[C@H](O)[C@@H](CO)O[C@H]1n1ccc(N)nc1=O [Compound 4]
EC50 [1]: > 100 µM

C[C@@]1(N)[C@@H]2OP(=O)(OC3CCC3)OC[C@H]2O[C@H]1n1ccc(N)nc1=O (stereo partly drawn) [Compound 79]
EC50 [1, 5]: 2.8 µM

CCOc1nc(N)nc2c1ncn2[C@@H]1O[C@H](COP(=O)(N[C@@H](C)C(=O)OC)Oc2ccccc2)C(O)[C@@]1(C)NC(N)=O (stereo partly drawn) [Compound 12]
EC50 [1, 5]: > 100 µM

CCOc1nc(N)nc2c1ncn2[C@@H]1O[C@H](COP(=O)(N[C@@H](C)C(=O)OC)Oc2ccccc2)C(O)[C@@]1(C)N (stereo partly drawn) [drawing 243]
Cytotoxicity [2]: >100 µM | EC50 [3]: 2500 nM
